Laboratory results from PubChem BioAssay AID1918996 (Molecular Pharmacology Branch, DTP, NCI, 2023).

System: 349418-098-R-PDC complex spheroid growth
Assay: Anticancer human tumor 349418-098-R-PDC patient-derived lung adenocarcinoma cell line growth inhibition [AhR]
Settings: for IC50: curve of first compound; for viability, T/C: stronger effect = lower value
Method in brief: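 Spheroids combined tumor cells with HUVEC endothelial cells and human MSCs as stroma. AhR antagonists were paired with standard or investigational drugs, each dosed in half-log steps down from near clinical Cmax, or from 10 microM where Cmax was unknown.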

[1] = second compound 0.1 µM, first compound 0.0316 µM
[2] = second compound 0.1 µM, first compound 0.1 µM
[3] = second compound 0.1 µM, first compound 0.316 µM
[4] = second compound 0.1 µM, first compound 1 µM
[5] = second compound 0.316 µM, first compound 0.0316 µM
[6] = second compound 0.316 µM, first compound 0.1 µM
[7] = second compound 0.316 µM, first compound 0.316 µM
[8] = second compound 0.316 µM, first compound 1 µM
[9] = second compound 1 µM, first compound 0.0316 µM
[10] = second compound 1 µM, first compound 0.1 µM
[11] = second compound 1 µM, first compound 0.316 µM
[12] = second compound 1 µM, first compound 1 µM
[13] = second compound 3.16 µM, first compound 0.0316 µM
[14] = second compound 3.16 µM, first compound 0.1 µM
[15] = second compound 3.16 µM, first compound 0.316 µM
[16] = second compound 3.16 µM, first compound 1 µM
[17] = second compound 10 µM, first compound 0.0316 µM
[18] = second compound 10 µM, first compound 0.1 µM
[19] = second compound 10 µM, first compound 0.316 µM
[20] = second compound 10 µM, first compound 1 µM
[21] = second compound 0.1 µM, first compound 3.16 µM
[22] = second compound 0.1 µM, first compound 10 µM
[23] = second compound 0.316 µM, first compound 3.16 µM
[24] = second compound 0.316 µM, first compound 10 µM
[25] = second compound 1 µM, first compound 3.16 µM
[26] = second compound 1 µM, first compound 10 µM
[27] = second compound 3.16 µM, first compound 3.16 µM
[28] = second compound 3.16 µM, first compound 10 µM
[29] = second compound 10 µM, first compound 3.16 µM
[30] = second compound 10 µM, first compound 10 µM
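Note: spheroids exposed to agents for seven days before luminescence viability read.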
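Throughout, for viability, T/C: spheroids also contain HUVEC endothelial cells and human MSC stroma.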

Nc1ncn(C2CC(O)C(CO)O2)c(=O)n1 (stereo not drawn) + Cc1ccccc1N=Nc1ccc(NC(=O)c2ccnn2C)c(C)c1
IC50 (second compound 0.1 µM): 0.059 µM | IC50 (second compound 0.316 µM): 0.0661 µM | IC50 (second compound 1 µM): 0.107 µM | IC50 (second compound 3.16 µM): 0.068 µM | IC50 (second compound 10 µM): 0.0505 µM | viability, T/C (second compound 0.1 µM, first compound 0.00316 µM): 97.8% | viability, T/C (second compound 0.1 µM, first compound 0.01 µM): 103% | viability, T/C [1]: 66.1% | viability, T/C [2]: 39.9% | viability, T/C [3]: 39.1% | viability, T/C [4]: 30% | viability, T/C (second compound 0.316 µM, first compound 0.00316 µM): 77.8% | viability, T/C (second compound 0.316 µM, first compound 0.01 µM): 111% | viability, T/C [5]: 73.1% | viability, T/C [6]: 38.8% | viability, T/C [7]: 37.7% | viability, T/C [8]: 34.5% | viability, T/C (second compound 1 µM, first compound 0.00316 µM): 79.6% | viability, T/C (second compound 1 µM, first compound 0.01 µM): 99.2% | viability, T/C [9]: 69.9% | viability, T/C [10]: 51.8% | viability, T/C [11]: 44% | viability, T/C [12]: 34% | viability, T/C (second compound 3.16 µM, first compound 0.00316 µM): 91.1% | viability, T/C (second compound 3.16 µM, first compound 0.01 µM): 74.4% | viability, T/C [13]: 61% | viability, T/C [14]: 42.2% | viability, T/C [15]: 41.3% | viability, T/C [16]: 34% | viability, T/C (second compound 10 µM, first compound 0.00316 µM): 54.7% | viability, T/C (second compound 10 µM, first compound 0.01 µM): 61.4% | viability, T/C [17]: 53.9% | viability, T/C [18]: 42.8% | viability, T/C [19]: 37.2% | viability, T/C [20]: 29.5%

NS(=O)(=O)OCC1CC(n2ccc3c(NC4CCc5ccccc54)ncnc32)CC1O (stereo not drawn) + CC(CO)NC(=O)c1cc(-c2ccc(Cl)cc2)nn(-c2cnn(C)c2)c1=O
IC50 (second compound 0.1 µM): 0.188 µM | IC50 (second compound 0.316 µM): 0.149 µM | IC50 (second compound 1 µM): 0.107 µM | IC50 (second compound 3.16 µM): 0.0494 µM | IC50 (second compound 10 µM): < 0.0316 µM | viability, T/C [1]: 83.2% | viability, T/C [2]: 65.6% | viability, T/C [3]: 37.1% | viability, T/C [4]: 18.4% | viability, T/C [21]: 13.4% | viability, T/C [22]: 8.51% | viability, T/C [5]: 92.7% | viability, T/C [6]: 62.9% | viability, T/C [7]: 24.7% | viability, T/C [8]: 19.9% | viability, T/C [23]: 11.2% | viability, T/C [24]: 8.21% | viability, T/C [9]: 68.8% | viability, T/C [10]: 52.2% | viability, T/C [11]: 24.5% | viability, T/C [12]: 16.3% | viability, T/C [25]: 10.8% | viability, T/C [26]: 9.16% | viability, T/C [13]: 54.8% | viability, T/C [14]: 42.6% | viability, T/C [15]: 22.7% | viability, T/C [16]: 14.7% | viability, T/C [27]: 10.7% | viability, T/C [28]: 8.74% | viability, T/C [17]: 33.8% | viability, T/C [18]: 30.9% | viability, T/C [19]: 25.7% | viability, T/C [20]: 16.7% | viability, T/C [29]: 10.9% | viability, T/C [30]: 8.91%

Cc1cncc(-c2nc(NCCc3c[nH]c4ccccc34)c3ncn(C(C)C)c3n2)c1
viability, T/C (compound 0.1 µM): 97.7% [middle of 20 runs] | viability, T/C (compound 0.316 µM): 93.4% [middle of 20 runs] | viability, T/C (compound 10 µM): 2.04% [middle of 19 runs]

COc1cc(C2c3cc4c(cc3C(OC3OC5COC(C)OC5C(O)C3O)C3COC(=O)C23)OCO4)cc(OC)c1O (stereo not drawn) + Cc1ccccc1N=Nc1ccc(NC(=O)c2ccnn2C)c(C)c1
IC50 (second compound 0.1 µM): 0.298 µM | IC50 (second compound 0.316 µM): 0.243 µM | IC50 (second compound 1 µM): 0.219 µM | IC50 (second compound 3.16 µM): 0.149 µM | IC50 (second compound 10 µM): < 0.0316 µM | viability, T/C [1]: 89.6% | viability, T/C [2]: 98.8% | viability, T/C [3]: 47.5% | viability, T/C [4]: 20.2% | viability, T/C [21]: 15.3% | viability, T/C [22]: 13.3% | viability, T/C [5]: 103% | viability, T/C [6]: 71.3% | viability, T/C [7]: 47.2% | viability, T/C [8]: 19.9% | viability, T/C [23]: 14.6% | viability, T/C [24]: 13.7% | viability, T/C [9]: 90.4% | viability, T/C [10]: 76.6% | viability, T/C [11]: 36.5% | viability, T/C [12]: 23.9% | viability, T/C [25]: 16.6% | viability, T/C [26]: 14.6% | viability, T/C [13]: 70.1% | viability, T/C [14]: 56.9% | viability, T/C [15]: 36.6% | viability, T/C [16]: 19.1% | viability, T/C [27]: 16.3% | viability, T/C [28]: 16% | viability, T/C [17]: 46.4% | viability, T/C [18]: 44.6% | viability, T/C [19]: 30.5% | viability, T/C [20]: 22.4% | viability, T/C [29]: 17.5% | viability, T/C [30]: 15.9%

CC(C)c1c(-c2ccccc2)nc2c(C#N)c[nH]n2c1=O + Cc1cncc(-c2nc(NCCc3c[nH]c4ccccc34)c3ncn(C(C)C)c3n2)c1
IC50 (second compound 0.1 µM): > 10 µM | IC50 (second compound 0.316 µM): > 10 µM | IC50 (second compound 1 µM): > 10 µM | IC50 (second compound 3.16 µM): < 0.0316 µM | IC50 (second compound 10 µM): < 0.0316 µM | viability, T/C [1]: 102% | viability, T/C [2]: 94.6% | viability, T/C [3]: 97.9% | viability, T/C [4]: 97.2% | viability, T/C [21]: 97% | viability, T/C [22]: 101% | viability, T/C [5]: 96.8% | viability, T/C [6]: 82.4% | viability, T/C [7]: 105% | viability, T/C [8]: 93.2% | viability, T/C [23]: 83.3% | viability, T/C [24]: 95.2% | viability, T/C [9]: 94.1% | viability, T/C [10]: 87% | viability, T/C [11]: 83.6% | viability, T/C [12]: 85.9% | viability, T/C [25]: 78.6% | viability, T/C [26]: 83.7% | viability, T/C [13]: 15.8% | viability, T/C [14]: 16.5% | viability, T/C [15]: 17.4% | viability, T/C [16]: 12.2% | viability, T/C [27]: 11.3% | viability, T/C [28]: 12.6% | viability, T/C [17]: 0.96% | viability, T/C [18]: 1.33% | viability, T/C [19]: 1.19% | viability, T/C [20]: 0.58% | viability, T/C [29]: 0.81% | viability, T/C [30]: 1.09%
